Laboratory results: ChEMBL document CHEMBL5356991, “Naphthyl bearing 1,3,4-thiadiazoleacetamides targeting the parasitic folate pathway as anti-infectious agents: in silico, synthesis, and biological approach” (RSC Med Chem, 2023)

Legend:
[1] = Hemolytic activity in human RBC assessed as hemolysis at 12.5 uM incubated for 1 hr by spectrophotometric analysis relative to control; type: toxicity, cell-based, Erythrocyte; conditions: human red blood cells (erythrocytes), read-out: Activity
Plasmodium falciparum [2] = assay: Antimalarial activity against chloroquine-resistant Plasmodium falciparum W2 assessed as parasite growth inhibition incubated for 72 hrs by Malstat reagent based LDH assay; type: functional, organism-based; conditions: W2, 72 h
Leishmania donovani = assay: Antileishmanial activity against promastigote stage of Leishmania donovani assessed as parasite growth inhibition incubated for 24 hrs by MTT assay; type: functional, organism-based
Plasmodium falciparum [3] = assay: Antimalarial activity against chloroquine-sensitive Plasmodium falciparum NF54 assessed as parasite growth inhibition incubated for 72 hrs by Malstat reagent based LDH assay; type: functional, organism-based; conditions: NF54, 72 h
[4] = Safety index, ratio of IC50 for antimalarial activity against chloroquine-sensitive Plasmodium falciparum NF54 to IC50 for cytotoxicity against human HEK293 cells; type: toxicity, cell-based; conditions: HEK293 cells versus Plasmodium falciparum NF54, read-out: Ratio IC50
[5] = Cytotoxicity against human HEK293 cells assessed as cell growth at 50 uM incubated for 48 hrs by MTT assay relative to control; type: toxicity, cell-based; conditions: read-out: Activity
[6] = Cytotoxicity against human HEK293 cells incubated for 48 hrs by MTT assay; type: toxicity, cell-based
Dihydrofolate reductase = molecular target: T1, Dihydrofolate reductase (Bos taurus, UniProt P00376); assay: Inhibition of bovine liver DHFR incubated for 12 mins in presence of NADPH
T1 sequence (P00376 whole entry): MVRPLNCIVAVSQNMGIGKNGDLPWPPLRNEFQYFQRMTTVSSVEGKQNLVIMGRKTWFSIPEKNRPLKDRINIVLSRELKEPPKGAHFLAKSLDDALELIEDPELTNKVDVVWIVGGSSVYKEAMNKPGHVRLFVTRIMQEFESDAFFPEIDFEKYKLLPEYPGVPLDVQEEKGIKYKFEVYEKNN

[7] = Selectivity index, ratio of IC50 for cytotoxicity against African green monkey Vero cells to IC50 for inhibition of bovine liver DHFR
Erythrocyte [8] = assay: Hemolytic activity in human RBC assessed as hemolysis at 200 uM incubated for 1 hr by spectrophotometric analysis; type: toxicity, cell-based
Vero = assay: Cytotoxicity against African green monkey Vero cells upto 1000 uM; type: toxicity, cell-based; conditions: chlorocebus sabaeus
Plasmodium falciparum [9] = assay: Resistance index, ratio of IC50 for antimalarial activity against chloroquine-resistant Plasmodium falciparum W2 to IC50 for antimalarial activity against chloroquine-sensitive Plasmodium falciparum NF54; type: functional
Erythrocyte [10] = assay: Hemolytic activity in human RBC assessed as hemolysis at 12.5 to 200 uM incubated for 1 hr by spectrophotometric analysis; type: toxicity, cell-based; conditions: dose 12.5-200 µM

## CCOC(=O)c1cnc2ccccc2c1N1CCN(CC(=O)Nc2nnc(COc3ccc4ccccc4c3)s2)CC1
[1]
  hemolysis at 1 h, 12.5 µM: < 10%
Plasmodium falciparum [2]
  IC50: > 10 µM
Leishmania donovani
  IC50: 5.32 µM
Plasmodium falciparum [3]
  IC50: 28.9 µM
[4]
  selectivity ratio: 1.73
[5]
  viability at 48 h, 50 µM: 59.8%

## CN1CCN(CC(=O)Nc2nnc(COc3ccc4ccccc4c3)s2)CC1
[1]
  hemolysis at 1 h, 12.5 µM: < 10%
Plasmodium falciparum [2]
  IC50: > 10 µM
Leishmania donovani
  IC50: 7.09 µM
Plasmodium falciparum [3]
  IC50: 7.83 µM
[6]
  IC50 at 48 h: 69.2 µM
[4]
  selectivity ratio: 8.85
[5]
  viability at 48 h, 50 µM: 42.8%

## Cc1ccc(N2CCN(CC(=O)Nc3nnc(COc4ccc5ccccc5c4)s3)CC2)cc1
[1]
  hemolysis at 1 h, 12.5 µM: < 10%
Plasmodium falciparum [2]
  IC50: > 10 µM
Leishmania donovani
  IC50: 6.19 µM
Plasmodium falciparum [3]
  IC50: 63.7 µM
[4]
  selectivity ratio: 0.79
[5]
  viability at 48 h, 50 µM: 66.4%

## O=C(CN1CCN(c2ccccc2O)CC1)Nc1nnc(COc2ccc3ccccc3c2)s1
Dihydrofolate reductase
  IC50: 2.5 µM
[1]
  hemolysis at 1 h, 12.5 µM: < 10%
Plasmodium falciparum [2]
  IC50: > 10 µM
[7]
  Ratio IC50: 400.881
Leishmania donovani
  IC50: 4.34 µM
Erythrocyte [8]
  Activity: Toxic
Plasmodium falciparum [3]
  IC50: 3.47 µM
[4]
  selectivity ratio: 14.4
[5]
  viability at 48 h, 50 µM: 92.9%
Vero
  Activity: Non-Toxic

## O=C(CN1CCN(C(c2ccccc2)c2ccccc2)CC1)Nc1nnc(COc2ccc3ccccc3c2)s1
Dihydrofolate reductase
  IC50: 1.87 µM
[1]
  hemolysis at 1 h, 12.5 µM: < 10%
Plasmodium falciparum [2]
  IC50: > 10 µM
[7]
  Ratio IC50: 535.245
Leishmania donovani
  IC50: 3.55 µM
Erythrocyte [8]
  Activity: Toxic
Plasmodium falciparum [3]
  IC50: 0.94 µM
[4]
  selectivity ratio: 53.2
[5]
  viability at 48 h, 50 µM: 94.4%
Vero
  Activity: Non-Toxic

## O=C(CN1CCOCC1)Nc1nnc(COc2ccc3ccccc3c2)s1
[1]
  hemolysis at 1 h, 12.5 µM: < 10%
Plasmodium falciparum [2]
  IC50: > 10 µM
Leishmania donovani
  IC50: 5.94 µM
Plasmodium falciparum [3]
  IC50: 10.7 µM
[4]
  selectivity ratio: 6.54
[5]
  viability at 48 h, 50 µM: 70%

## O=C(CN1CCN(c2ccnc3cc(Cl)ccc23)CC1)Nc1nnc(COc2ccc3ccccc3c2)s1
Dihydrofolate reductase
  IC50: 2.94 µM
[1]
  hemolysis at 1 h, 12.5 µM: < 10%
Plasmodium falciparum [2]
  IC50: 3.92 µM
[7]
  Ratio IC50: 340.518
Leishmania donovani
  IC50: 7.2 µM
Erythrocyte [8]
  Activity: Toxic
Plasmodium falciparum [3]
  IC50: 3.93 µM
[6]
  IC50 at 48 h: 70.4 µM
[4]
  selectivity ratio: 9.44
[5]
  viability at 48 h, 50 µM: 43.3%
Plasmodium falciparum [9]
  Ratio IC50: 0.99
Vero
  Activity: Non-Toxic

## COc1ccc(N2CCN(CC(=O)Nc3nnc(COc4ccc5ccccc5c4)s3)CC2)cc1
[1]
  hemolysis at 1 h, 12.5 µM: < 10%
Plasmodium falciparum [2]
  IC50: > 10 µM
Leishmania donovani
  IC50: 5.53 µM
Plasmodium falciparum [3]
  IC50: > 200 µM
[4]
  selectivity ratio: 0.25
[5]
  viability at 48 h, 50 µM: 58%

## O=C(CN1CCCCC1)Nc1nnc(COc2ccc3ccccc3c2)s1
[1]
  hemolysis at 1 h, 12.5 µM: < 10%
Plasmodium falciparum [2]
  IC50: > 10 µM
Leishmania donovani
  IC50: 6.71 µM
Erythrocyte [8]
  Activity: Toxic
Plasmodium falciparum [3]
  IC50: 21.5 µM
[4]
  selectivity ratio: 2.33
[5]
  viability at 48 h, 50 µM: 86.9%

## O=C(CN1CCN(c2cc(N3CCOCC3)ncn2)CC1)Nc1nnc(COc2ccc3ccccc3c2)s1
[1]
  hemolysis at 1 h, 12.5 µM: < 10%
Plasmodium falciparum [2]
  IC50: > 10 µM
Leishmania donovani
  IC50: 6.61 µM
Plasmodium falciparum [3]
  IC50: 61.3 µM
[4]
  selectivity ratio: 0.82
[5]
  viability at 48 h, 50 µM: 87.4%

## CCN(CC)CCCC(C)Nc1ccnc2cc(Cl)ccc12 (stereo unspecified) [CHLOROQUINE]
Erythrocyte [10]
  Activity: Toxic
[6]
  IC50 at 48 h: 17.2 µM
[5]
  viability at 48 h, 50 µM: 58.5%

## CCCCCCCCCCCCCCCCOP(=O)([O-])OCC[N+](C)(C)C [MILTEFOSINE]
Leishmania donovani
  IC50: 0.19 µM

## C=C[C@H]1CN2CC[C@H]1C[C@H]2[C@H](O)c1ccnc2ccc(OC)cc12 [QUININE]
Plasmodium falciparum [3]
  IC50: 0.108 µM
